≈ marks a conversion by molar mass, not a printed value.
System: M. tuberculosis sp. 210
Experiment: Tuberculostatic activity, classical test-tube method of successive dilution
Type: cell-based
Conditions: Mycobacterium tuberculosis; sp. 210, wild strain resistant to PAS, INH, ETB, RFP

`NC(=NS(=O)(=O)c1cnccc1Cl)c1ccccn1` [Compound 2, N′-[(4-Chloropyridin-3-yl)sulfonyl]-2-pyridinecarboximidamide] showed an MIC of 50 µg/mL (≈ 168 µM).
Compound `NC(=NS(=O)(=O)c1ccccc1Cl)c1ncccn1` [Compound 7, N′-[(2-Chlorophenyl)sulfonyl]pyrimidine-2-carboximidamide] has an MIC of 50 µg/mL (≈ 168 µM).
`NC(=NS(=O)(=O)c1cnccc1Cl)c1ncccn1` [Compound 8, N′-[(4-Chloropyridin-3-yl)sulfonyl]pyrimidine-2-carboximidamide] gave an MIC of 50 µg/mL (≈ 168 µM).
`NC(=NS(=O)(=O)c1cnccc1Cl)c1cnccn1` [Compound 10, N′-[(4-Chloropyridin-3-yl)sulfonyl]pyrazine-2-carboximidamide] gave an MIC of 50 µg/mL (≈ 168 µM).
`NNC(=O)c1ccncc1` [INH, isoniazid, reference compound] showed an MIC of 1.1 µg/mL (≈ 8.02 µM).

— PMC4494771, “Synthesis, structure, and biological activity of novel heterocyclic sulfonyl-carboximidamides” (Monatshefte Fur Chemie, 2013)
